Test results from PubChem BioAssay (NCI).
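Interpolation was linear, between the two tested concentrations surrounding the appropriate level; five concentrations were tested over 48 hours in 96-well plates. The concentration for 50% growth inhibition is given as GI50. TGI marks complete inhibition of growth.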 *1 amine or outer side, *2 acyl side, *3 side chain or, on linkers, in order; H or OH if unused. Where a SMILES comes first, the peptide text is derived from it. [ ]: non-standard residue; d: D form. The star is where a group is joined. X11 = C/C=C/CC(C)C(O)[C@H](N[*:1])C(=O)[*:2]; Decanoyl = CCCCCCCCCC(=O)*; Leu(ol) = CC(C)C[C@H](N)CO; Aib = CC(C)(N)C(=O)O

What was measured:
Experiment in all cases: DTP human tumour cell line panel, 48 h
CCRF-CEM leukemia = test system: CCRF-CEM leukemia
BT-549 breast = test system: BT-549 breast
MALME-3M melanoma = test system: MALME-3M melanoma
OVCAR-8 ovarian = test system: OVCAR-8 ovarian
MCF7 breast = test system: MCF7 breast
SF-539 CNS = test system: SF-539 CNS
UACC-257 melanoma = test system: UACC-257 melanoma
NCI-H460 lung = test system: NCI-H460 lung
A549 NSCLC = test system: A549 NSCLC
DU-145 prostate = test system: DU-145 prostate
M14 melanoma = test system: M14 melanoma
HT29 colon = test system: HT29 colon
TK-10 renal = test system: TK-10 renal
HOP-62 NSCLC = test system: HOP-62 NSCLC
K-562 leukemia = test system: K-562 leukemia
CAKI-1 renal = test system: CAKI-1 renal
SK-MEL-28 melanoma = test system: SK-MEL-28 melanoma
MOLT-4 leukemia = test system: MOLT-4 leukemia
KM12 colon = test system: KM12 colon
ACHN renal = test system: ACHN renal
NCI/ADR-RES ovarian = test system: NCI/ADR-RES ovarian
SR leukemia = test system: SR leukemia
OVCAR-4 ovarian = test system: OVCAR-4 ovarian
SK-MEL-5 melanoma = test system: SK-MEL-5 melanoma
NCI-H23 lung = test system: NCI-H23 lung
RPMI-8226 leukemia = test system: RPMI-8226 leukemia
EKVX NSCLC = test system: EKVX NSCLC
NCI-H522 lung = test system: NCI-H522 lung
UO-31 renal = test system: UO-31 renal
SN12C renal = test system: SN12C renal
RXF 393 renal = test system: RXF 393 renal
SK-OV-3 ovarian = test system: SK-OV-3 ovarian
MDA-MB-231 breast = test system: MDA-MB-231 breast
HOP-92 NSCLC = test system: HOP-92 NSCLC
SNB-19 CNS = test system: SNB-19 CNS
HS 578T breast = test system: HS 578T breast
SNB-75 CNS = test system: SNB-75 CNS
NCI-H226 lung = test system: NCI-H226 lung
786-0 renal = test system: 786-0 renal
UACC-62 melanoma = test system: UACC-62 melanoma
LOX IMVI melanoma = test system: LOX IMVI melanoma
HCC-2998 colon = test system: HCC-2998 colon
SF-295 CNS = test system: SF-295 CNS
T-47D breast = test system: T-47D breast
IGROV1 ovarian = test system: IGROV1 ovarian
COLO 205 colon = test system: COLO 205 colon
HCT-15 colon = test system: HCT-15 colon
PC-3 prostate = test system: PC-3 prostate
SK-MEL-2 melanoma = test system: SK-MEL-2 melanoma
HL-60(TB) leukemia = test system: HL-60(TB) leukemia
OVCAR-3 ovarian = test system: OVCAR-3 ovarian
HCT-116 colon = test system: HCT-116 colon
A498 renal = test system: A498 renal
SW-620 colon = test system: SW-620 colon
MDA-MB-435 = test system: MDA-MB-435
SF-268 CNS = test system: SF-268 CNS
U251 CNS = test system: U251 CNS
OVCAR-5 ovarian = test system: OVCAR-5 ovarian

Question: Which results are given for `C/C=C/CC(C)C(O)[C@H](NC(=O)[C@@H]1CCCN1C(=O)C(C)(C)NC(=O)CCCCCCCCC)C(=O)NC(C)(C)C(=O)N[C@@H](CCC(N)=O)C(=O)N[C@H](CCC(N)=O)C(=O)NC(C)(C)C(=O)NC(C)(C)C(=O)N[C@@H](CCC(N)=O)C(=O)N[C@H](CC(C)C)C(=O)N[C@H](CO)CC(C)C` (stereo partly drawn) (Decanoyl-[Aib]P[X11][Aib]Q[dQ][Aib][Aib]Q[dL][Leu(ol)])?
Answer: GI50 (CCRF-CEM leukemia): 1.87 µM; TGI (CCRF-CEM leukemia): 4 µM; GI50 (BT-549 breast): 1.84 µM; TGI (BT-549 breast): 3.37 µM; GI50 (MALME-3M melanoma): 1.4 µM; TGI (MALME-3M melanoma): 2.76 µM; GI50 (OVCAR-8 ovarian): 1.5 µM; TGI (OVCAR-8 ovarian): 3.76 µM; GI50 (MCF7 breast): 1.63 µM; TGI (MCF7 breast): 3.53 µM; GI50 (SF-539 CNS): 1.62 µM; TGI (SF-539 CNS): 3 µM; GI50 (UACC-257 melanoma): 1.54 µM; TGI (UACC-257 melanoma): 3.09 µM; GI50 (NCI-H460 lung): 1.53 µM; TGI (NCI-H460 lung): 3.06 µM; GI50 (A549 NSCLC): 2.28 µM; GI50 (DU-145 prostate): 1.46 µM; TGI (DU-145 prostate): 2.85 µM; GI50 (M14 melanoma): 1.69 µM; TGI (M14 melanoma): 3.35 µM; GI50 (HT29 colon): 2.57 µM; GI50 (TK-10 renal): 2.27 µM; TGI (TK-10 renal): 5.57 µM; GI50 (HOP-62 NSCLC): 1.64 µM; TGI (HOP-62 NSCLC): 3.68 µM; GI50 (K-562 leukemia): 1.66 µM; TGI (K-562 leukemia): 4.85 µM; GI50 (CAKI-1 renal): 2.21 µM; TGI (CAKI-1 renal): 6.09 µM; GI50 (SK-MEL-28 melanoma): 1.69 µM; TGI (SK-MEL-28 melanoma): 3.1 µM; GI50 (MOLT-4 leukemia): 2.1 µM; TGI (MOLT-4 leukemia): 6.44 µM; GI50 (KM12 colon): 1.84 µM; TGI (KM12 colon): 3.68 µM; GI50 (ACHN renal): 2.5 µM; TGI (ACHN renal): 7.43 µM; GI50 (NCI/ADR-RES ovarian): 2.39 µM; TGI (NCI/ADR-RES ovarian): 6.86 µM; GI50 (SR leukemia): 1.95 µM; TGI (SR leukemia): 8.47 µM; GI50 (OVCAR-4 ovarian): 2.95 µM; GI50 (SK-MEL-5 melanoma): 1.72 µM; TGI (SK-MEL-5 melanoma): 3.16 µM; GI50 (NCI-H23 lung): 2.09 µM; TGI (NCI-H23 lung): 5.91 µM; GI50 (RPMI-8226 leukemia): 1.85 µM; TGI (RPMI-8226 leukemia): 4.26 µM; GI50 (EKVX NSCLC): 1.61 µM; TGI (EKVX NSCLC): 3.71 µM; GI50 (NCI-H522 lung): 1.67 µM; TGI (NCI-H522 lung): 3.4 µM; GI50 (UO-31 renal): 1.59 µM; TGI (UO-31 renal): 4.22 µM; GI50 (SN12C renal): 1.93 µM; TGI (SN12C renal): 5.35 µM; GI50 (RXF 393 renal): 2.14 µM; TGI (RXF 393 renal): 3.98 µM; GI50 (SK-OV-3 ovarian): 3.11 µM; TGI (SK-OV-3 ovarian): 13.3 µM; GI50 (MDA-MB-231 breast): 1.63 µM; TGI (MDA-MB-231 breast): 3.1 µM; GI50 (HOP-92 NSCLC): 1.66 µM; TGI (HOP-92 NSCLC): 3.97 µM; GI50 (SNB-19 CNS): 1.55 µM; TGI (SNB-19 CNS): 3.07 µM; GI50 (HS 578T breast): 1.54 µM; TGI (HS 578T breast): 3.28 µM; GI50 (SNB-75 CNS): 1.74 µM; TGI (SNB-75 CNS): 3.22 µM; GI50 (NCI-H226 lung): 1.64 µM; TGI (NCI-H226 lung): 3.97 µM; GI50 (786-0 renal): 1.76 µM; TGI (786-0 renal): 3.33 µM; GI50 (UACC-62 melanoma): 1.61 µM; TGI (UACC-62 melanoma): 3.19 µM; GI50 (LOX IMVI melanoma): 1.72 µM; TGI (LOX IMVI melanoma): 3.45 µM; GI50 (HCC-2998 colon): 2.13 µM; TGI (HCC-2998 colon): 5.25 µM; GI50 (SF-295 CNS): 1.39 µM; TGI (SF-295 CNS): 2.9 µM; GI50 (T-47D breast): 2.09 µM; TGI (T-47D breast): 5.67 µM; GI50 (IGROV1 ovarian): 2.3 µM; TGI (IGROV1 ovarian): 7.23 µM; GI50 (COLO 205 colon): 1.61 µM; TGI (COLO 205 colon): 3.33 µM; GI50 (HCT-15 colon): 2.44 µM; TGI (HCT-15 colon): 7.08 µM; GI50 (PC-3 prostate): 1.14 µM; TGI (PC-3 prostate): 3.18 µM; GI50 (SK-MEL-2 melanoma): 1.86 µM; TGI (SK-MEL-2 melanoma): 4.22 µM; GI50 (HL-60(TB) leukemia): 2.2 µM; TGI (HL-60(TB) leukemia): 5.22 µM; GI50 (OVCAR-3 ovarian): 1.91 µM; TGI (OVCAR-3 ovarian): 3.95 µM; GI50 (HCT-116 colon): 2.21 µM; TGI (HCT-116 colon): 5.16 µM; GI50 (A498 renal): 1.99 µM; TGI (A498 renal): 4.07 µM; GI50 (SW-620 colon): 2.38 µM; TGI (SW-620 colon): 7.11 µM; GI50 (MDA-MB-435): 1.68 µM; TGI (MDA-MB-435): 3.07 µM; GI50 (SF-268 CNS): 1.75 µM; TGI (SF-268 CNS): 3.7 µM; GI50 (U251 CNS): 1.46 µM; TGI (U251 CNS): 2.97 µM; GI50 (OVCAR-5 ovarian): 1.87 µM; TGI (OVCAR-5 ovarian): 3.96 µM
